Data as given in patent US11426473B2, “Nitrogen-containing compound or salt thereof, or metal complex thereof” (FUJIFILM Corporation, priority 2013, dated 2022).
Where a name gives a salt, the structure may show the parent alone. Read-outs that look alike come from different tables or passages of the source.

What was measured:
Integrin αvβ3 = target: T1, Integrin αvβ3 (Homo sapiens, UniProt P05106+P06756); test: Integrin αvβ3 binding affinity test
T1 construct: purchased Chemicon International, Inc
Protocol: (§1) […] αvβ3 (Chemicon International, Inc.) was immobilized on each well of a 96-well plate (Corning Inc.). Each well was blocked with a 1% Block Ace (DS Pharma Biomedical Co., Ltd) solution and then washed with T-PBS (PBS containing 0.05% Tween 20). Evaluation compound solutions having a 2-fold concentration (10 concentrations of 3.16-fold dilutions from 0.3 μmol/L, buffer (20 mM Tris-HCl pH 7.5, 150 mM NaCl, 1 mM CaCl2, 1 mM MgCl2, and 1 mM MnCl2)) and a 4 μg/mL biotinylated vitronectin solution (vitronectin (Upstate Biotechnology Inc.) was labeled with EZ-Link Sulfo-NHS-Biotinylation Kit (Pierce/Thermo Fisher Scientific Inc.) and then concentration-adjusted) were each added at 50 μL/well, and the plate was shaken at room temperature for 2 hours. After washing with T-PBS, a 0.2 μg/mL avidin peroxidase (Pierce/Thermo Fisher Scientific Inc.) solution was added thereto, and the plate was shaken at room temperature for 1 hour. After washing with T-PBS, color was developed by an o-phenylenediamine (Sigma-Aldrich Inc.) solution (the reaction was terminated by the addition of 4 mol/L sulfuric acid), and the absorbance was measured (490 nm, Reference: 595 nm). The IC50 value was calculated using XLfit 3.0 (ID Business Solutions Ltd.). RGDfV (Bachem AG) was measured in duplicate as a QC sample for each plate.

Integrin αvβ5 = target: T2, Integrin αvβ5 (Homo sapiens, UniProt P06756+P18084); test: Integrin αvβ5 binding affinity test
T2 construct: purchased Chemicon International, Inc
Protocol: as §1, with “αvβ5” for “αvβ3”, “PBST (10 mM Na2HPO4 pH 7.5, 150 mM NaCl, and 0.01%” for “T-PBS (PBS containing 0.05%”, “PBST,” for “T-PBS,”

[1] = inhibition of biotinylated vitronectin binding to immobilized αvβ3, read-out: IC50 value αv β3
[2] = inhibition of biotinylated vitronectin binding to immobilized αvβ5, read-out: IC50 value αvβ5

T1 sequence (P06756 31-889 limits assumed): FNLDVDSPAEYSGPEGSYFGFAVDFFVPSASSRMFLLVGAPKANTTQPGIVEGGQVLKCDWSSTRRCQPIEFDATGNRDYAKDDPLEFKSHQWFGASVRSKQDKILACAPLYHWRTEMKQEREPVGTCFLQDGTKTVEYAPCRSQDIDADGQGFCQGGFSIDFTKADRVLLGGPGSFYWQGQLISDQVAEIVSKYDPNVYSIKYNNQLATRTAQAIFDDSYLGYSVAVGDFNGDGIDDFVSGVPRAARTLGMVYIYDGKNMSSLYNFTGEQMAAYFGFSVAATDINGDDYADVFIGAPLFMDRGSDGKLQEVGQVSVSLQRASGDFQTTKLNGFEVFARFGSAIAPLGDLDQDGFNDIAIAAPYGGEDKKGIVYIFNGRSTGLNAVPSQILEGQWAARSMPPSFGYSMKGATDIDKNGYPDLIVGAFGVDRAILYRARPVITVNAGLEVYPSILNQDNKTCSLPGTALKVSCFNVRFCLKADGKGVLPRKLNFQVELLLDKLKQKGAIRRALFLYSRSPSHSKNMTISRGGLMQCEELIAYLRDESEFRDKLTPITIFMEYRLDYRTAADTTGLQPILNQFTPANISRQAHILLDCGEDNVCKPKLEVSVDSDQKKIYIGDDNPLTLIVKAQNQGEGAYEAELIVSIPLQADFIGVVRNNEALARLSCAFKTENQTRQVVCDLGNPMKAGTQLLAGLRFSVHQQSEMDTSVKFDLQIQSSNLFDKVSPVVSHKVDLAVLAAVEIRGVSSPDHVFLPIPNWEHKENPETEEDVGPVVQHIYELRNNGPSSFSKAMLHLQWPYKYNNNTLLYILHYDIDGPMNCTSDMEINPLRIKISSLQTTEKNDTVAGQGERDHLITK
T1 sequence (P06756 891-1048 partner limits assumed): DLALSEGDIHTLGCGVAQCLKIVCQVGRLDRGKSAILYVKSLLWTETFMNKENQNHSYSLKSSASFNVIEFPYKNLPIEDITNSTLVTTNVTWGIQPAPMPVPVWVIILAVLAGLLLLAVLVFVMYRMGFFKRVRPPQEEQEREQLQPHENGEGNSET
T1 sequence (P05106 27-788): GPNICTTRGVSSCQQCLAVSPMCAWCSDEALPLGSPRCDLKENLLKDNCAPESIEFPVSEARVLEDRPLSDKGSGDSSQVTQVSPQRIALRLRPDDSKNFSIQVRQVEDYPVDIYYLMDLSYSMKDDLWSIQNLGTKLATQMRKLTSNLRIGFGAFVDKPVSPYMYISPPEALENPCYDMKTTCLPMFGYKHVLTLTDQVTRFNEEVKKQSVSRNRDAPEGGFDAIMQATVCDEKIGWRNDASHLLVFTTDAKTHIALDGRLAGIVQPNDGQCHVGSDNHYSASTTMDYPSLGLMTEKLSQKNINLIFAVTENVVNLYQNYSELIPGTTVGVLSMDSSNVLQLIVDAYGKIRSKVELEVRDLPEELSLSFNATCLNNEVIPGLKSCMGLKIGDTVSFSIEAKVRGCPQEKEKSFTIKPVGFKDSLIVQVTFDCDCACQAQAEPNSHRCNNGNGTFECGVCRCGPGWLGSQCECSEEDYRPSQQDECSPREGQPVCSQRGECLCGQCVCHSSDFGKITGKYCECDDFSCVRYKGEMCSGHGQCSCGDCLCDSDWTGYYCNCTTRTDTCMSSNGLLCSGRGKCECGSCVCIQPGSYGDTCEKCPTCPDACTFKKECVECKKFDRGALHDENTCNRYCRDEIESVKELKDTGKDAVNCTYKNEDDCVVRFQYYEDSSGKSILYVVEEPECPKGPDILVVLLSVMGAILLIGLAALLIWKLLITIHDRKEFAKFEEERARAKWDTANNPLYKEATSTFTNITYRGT
T2 sequence (P06756 31-889 limits assumed): as the sequence (P06756 31-889 limits assumed) above
T2 sequence (P06756 891-1048 partner limits assumed): as the sequence (P06756 891-1048 partner limits assumed) above
T2 sequence (P18084 24-799): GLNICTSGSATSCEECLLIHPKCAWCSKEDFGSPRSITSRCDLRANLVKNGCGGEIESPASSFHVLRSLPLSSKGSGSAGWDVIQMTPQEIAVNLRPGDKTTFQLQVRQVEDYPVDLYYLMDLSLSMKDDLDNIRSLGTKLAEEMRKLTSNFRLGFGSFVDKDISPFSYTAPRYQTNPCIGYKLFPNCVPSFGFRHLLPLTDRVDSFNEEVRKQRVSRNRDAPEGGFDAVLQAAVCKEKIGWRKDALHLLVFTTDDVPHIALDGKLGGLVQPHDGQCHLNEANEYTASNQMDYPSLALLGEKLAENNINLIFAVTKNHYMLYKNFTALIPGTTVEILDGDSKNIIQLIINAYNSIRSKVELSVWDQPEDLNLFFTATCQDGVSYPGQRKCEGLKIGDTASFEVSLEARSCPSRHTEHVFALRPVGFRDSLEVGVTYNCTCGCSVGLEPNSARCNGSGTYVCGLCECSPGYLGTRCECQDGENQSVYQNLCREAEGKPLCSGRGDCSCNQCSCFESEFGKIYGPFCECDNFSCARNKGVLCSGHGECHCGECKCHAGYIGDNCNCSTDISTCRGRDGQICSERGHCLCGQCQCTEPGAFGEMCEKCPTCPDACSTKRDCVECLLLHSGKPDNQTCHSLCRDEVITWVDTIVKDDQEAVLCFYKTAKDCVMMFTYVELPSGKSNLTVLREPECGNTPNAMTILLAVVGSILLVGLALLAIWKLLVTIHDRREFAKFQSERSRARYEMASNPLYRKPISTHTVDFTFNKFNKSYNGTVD

Row | SMILES | IC50 (Integrin αvβ3; [1]) | IC50 (Integrin αvβ5; [2]) | IC50 (Integrin αvβ3) | IC50 (Integrin αvβ5)
1 | Cc1cc(OCCCC(=O)NCCNC(=O)COCCOCCNC(=O)CN2CCN(CC(=O)O)CCN(CC(=O)O)CCN(CC(=O)O)CC2)cc(C)c1S(=O)(=O)N[C@@H](CNC(=O)c1ccc(CCc2ccc3c(n2)NCCC3)cc1)C(=O)O [Compound D3, (S)-2,2′,2′-(10-(19-(4-(N-(1-carboxy-2-(4-(2-(5,6,7,8-tetrahydro-1,8-naphthyridin-2-yl)ethyl)benzamido)ethyl)sulfamoyl)-3,5-dimethylphenoxy)-2,11,16-trioxo-6,9-dioxa-3,12,15-triazanonadecyl)-1,4,7,10-tetraazacyclododecane-1,4,7-triyl)triacetic acid] | < 1 nM | < 1 nM | – | –
2 | Cc1cc(OCCCC(=O)NCCNC(=O)COCCOCCNC(=O)CN2CCN3CCN4CCN(CC2)CC(=O)[O][In]([O]C(=O)C3)[O]C(=O)C4)cc(C)c1S(=O)(=O)NC(CNC(=O)c1ccc(CCc2ccc3c(n2)NCCC3)cc1)C(=O)O (stereo not drawn) [BB] | – | – | < 1 nM | < 1 nM
3 | Cc1cc(OCCCC(=O)NCCNC(=O)[C@H](CS(=O)(=O)O)NC(=O)[C@H](CS(=O)(=O)O)NC(=O)CN2CCN(CC(=O)O)CCN(CC(=O)O)CCN(CC(=O)O)CC2)cc(C)c1S(=O)(=O)N[C@@H](CNC(=O)c1ccc(CCc2ccc3c(n2)NCCC3)s1)C(=O)O [Compound X9, 2,2′,2″-(10-((4R,7R)-16-(4-(N—((S)-1-carboxy-2-(5-(2-(5,6,7,8-tetrahydro-1,8-naphthyridin-2-yl)ethyl)thiophene-2-carboxamido)ethyl)sulfamoyl)-3,5-dimethylphenoxy)-2,5,8,13-tetraoxo-4,7-bis(sulfomethyl)-3,6,9,12-tetraazahexadecyl)-1,4,7,10-tetraazacyclododecane-1,4,7-triyl)triacetic acid] | < 1 nM | 1 to 10 nM | – | –
4 | O=C(O)CC(c1cncc(OCCCC(=O)NCCNC(=O)[C@H](CS(=O)(=O)O)NC(=O)[C@H](CS(=O)(=O)O)NC(=O)CN2CCN(CC(=O)O)CCN(CC(=O)O)CCN(CC(=O)O)CC2)c1)n1ccc2c(CCc3ccc4c(n3)NCCC4)cccc21 (stereo partly drawn) [Compound J9, 2,2′,2″-(10-((4R,7R)-16-((5-(2-carboxy-1-(4-(2-(5,6,7,8-tetrahydro-1,8-naphthyridin-2-yl)ethyl)-1H-indol-1-yl)ethyl)pyridin-3-yl)oxy)-2,5,8,13-tetraoxo-4,7-bis(sulfomethyl)-3,6,9,12-tetraazahexadecyl)-1,4,7,10-tetraazacyclododecane-1,4,7-triyl)triacetic acid] | < 1 nM | 1 to 10 nM | – | –
5 | O=C(O)CN1CCN(CC(=O)O)CCN(CC(=O)N[C@@H](CS(=O)(=O)O)C(=O)N[C@@H](CS(=O)(=O)O)C(=O)NCCNC(=O)CCCOc2ccc(S(=O)(=O)N[C@@H](CNC(=O)c3ccc(CCc4ccc5c(n4)NCCC5)cc3)C(=O)O)cc2)CCN(CC(=O)O)CC1 [Compound Y13, 2,2′,2″-(10-((4R,7R)-16-(4-(N—((S)-1-carboxy-2-(4-(2-(5,6,7,8-tetrahydro-1,8-naphthyridin-2-yl)ethyl)benzamido)ethyl)sulfamoyl)phenoxy)-2,5,8,13-tetraoxo-4,7-bis(sulfomethyl)-3,6,9,12-tetraazahexadecyl)-1,4,7,10-tetraazacyclododecane-1,4,7-triyl)triacetic acid hexasodium salt] | < 1 nM | < 1 nM | – | –
6 | Cc1cc(OCCCC(=O)NCCNC(=O)[C@H](CS(=O)(=O)O)NC(=O)[C@H](CS(=O)(=O)O)NC(=O)CN2CCN(CC(=O)O)CCN(CC(=O)O)CCN(CC(=O)O)CC2)cc(C)c1S(=O)(=O)N[C@@H](CNC(=O)c1ccc(CCc2cccc(N)n2)cc1)C(=O)O [Compound N3, 2,2′,2″-(10-((4R,7R)-16-(4-(N—((S)-2-(4-(2-(6-aminopyridin-2-yl)ethyl)benzamido)-1-carboxyethyl)sulfamoyl)-3,5-dimethylphenoxy)-2,5,8,13-tetraoxo-4,7-bis(sulfomethyl)-3,6,9,12-tetraazahexadecyl)-1,4,7,10-tetraazacyclododecane-1,4,7-triyl)triacetic acid] | < 1 nM | < 1 nM | – | –
7 | Cc1cc(OCCCC(=O)NCCNC(=O)CN2CCN(CC(=O)O)CCN(CC(=O)O)CCN(CC(=O)O)CC2)cc(C)c1S(=O)(=O)N[C@@H](CNC(=O)c1ccc(CCc2ccc3c(n2)NCCC3)cc1)C(=O)O [Compound S2, (S)-2,2′,2″-(10-(2-((2-(4-(4-(N-(1-carboxy-2-(4-(2-(5,6,7,8-tetrahydro-1,8-naphthyridin-2-yl)ethyl)benzamido)ethyl)sulfamoyl)-3,5-dimethylphenoxy)butanamido)ethyl)amino)-2-oxoethyl)-1,4,7,10-tetraazacyclododecane-1,4,7-triyl)triacetic acid] | < 1 nM | < 1 nM | – | –
8 | Cc1cc(OCCCC(=O)NCCNC(=O)[C@H](CS(=O)(=O)O)NC(=O)CCC(NC(=O)CN2CCN(CC(=O)O)CCN(CC(=O)O)CCN(CC(=O)O)CC2)C(=O)N[C@@H](CS(=O)(=O)O)C(=O)NCCNC(=O)CCCOc2cc(C)c(S(=O)(=O)N[C@@H](CNC(=O)c3ccc(CCc4ccc5c(n4)NCCC5)cc3)C(=O)O)c(C)c2)cc(C)c1S(=O)(=O)N[C@@H](CNC(=O)c1ccc(CCc2ccc3c(n2)NCCC3)cc1)C(=O)O (stereo partly drawn) [Compound H9] | < 1 nM | < 1 nM | – | –
9 | Cc1cc(OCCCC(=O)NCCNC(=O)[C@H](CS(=O)(=O)O)NC(=O)[C@H](CS(=O)(=O)O)NC(=O)CN2CCN(CC(=O)O)CCN(CC(=O)O)CCN(CC(=O)O)CC2)cc(C)c1S(=O)(=O)N[C@@H](CNC(=O)CCCCc1ccc2c(n1)NCCC2)C(=O)O [Compound O10, 2,2′,2′-(10-((4R,7R)-16-(4-(N—((S)-1-carboxy-2-(5-(5,6,7,8-tetrahydro-1,8-naphthyridin-2-yl)pentanamido)ethyl)sulfamoyl)-3,5-dimethylphenoxy)-2,5,8,13-tetraoxo-4,7-bis(sulfomethyl)-3,6,9,12-tetraazahexadecyl)-1,4,7,10-tetraazacyclododecane-1,4,7-triyl)triacetic acid] | < 1 nM | < 1 nM | – | –
10 | Cc1cc(OCCCC(=O)NCCNC(=O)[C@H](CS(=O)(=O)O)NC(=O)CN2CCN(CC(=O)O)CCN(CC(=O)O)CCN(CC(=O)O)CC2)cc(C)c1S(=O)(=O)N[C@@H](CNC(=O)c1ccc(CCc2cccc(N)n2)cc1)C(=O)O [Compound M2, 2,2′,2″-(10-(2-(((R)-1-((2-(4-(4-(N—((S)-2-(4-(2-(6-aminopyridin-2-yl)ethyl)benzamido)-1-carboxyethyl)sulfamoyl)-3,5-dimethylphenoxy)butanamido)ethyl)amino)-1-oxo-3-sulfopropan-2-yl)amino)-2-oxoethyl)-1,4,7,10-tetraazacyclododecane-1,4,7-triyl)triacetic acid] | < 1 nM | < 1 nM | – | –
11 | Cc1cc(OCCCC(=O)NCCNC(=O)[C@H](CS(=O)(=O)O)NC(=O)CC[C@H](NC(=O)CN2CCN(CC(=O)O)CCN(CC(=O)O)CCN(CC(=O)O)CC2)C(=O)N[C@@H](CS(=O)(=O)O)C(=O)NCCNC(=O)CCCOc2cc(C)c(S(=O)(=O)N[C@@H](CNC(=O)c3ccc(CCc4cccc(N)n4)cc3)C(=O)O)c(C)c2)cc(C)c1S(=O)(=O)N[C@@H](CNC(=O)c1ccc(CCc2cccc(N)n2)cc1)C(=O)O [Compound L10] | < 1 nM | < 1 nM | – | –
12 | Cc1cc(OCCCC(=O)NCCNC(=O)COCCOCCNC(=O)COCCOCCNC(=O)CN2CCN(CC(=O)O)CCN(CC(=O)O)CCN(CC(=O)O)CC2)cc(C)c1S(=O)(=O)N[C@@H](CNC(=O)c1ccc(CCc2ccc3c(n2)NCCC3)cc1)C(=O)O [Compound F3, (S)-2,2′,2″-(10-(28-(4-(N-(1-carboxy-2-(4-(2-(5,6,7,8-tetrahydro-1,8-naphthyridin-2-yl)ethyl)benzamido)ethyl)sulfamoyl)-3,5-dimethylphenoxy)-2,11,20,25-tetraoxo-6,9,15,18-tetraoxa-3,12,21,24-tetraazaoctacosyl)-1,4,7,10-tetraazacyclododecane-1,4,7-triyl)triacetic acid] | < 1 nM | < 1 nM | – | –
